According to patent US9079901B2, “Fused heterocyclic compounds as ion channel modulators” (Gilead Sciences, Inc., priority 2010, dated 2015):

Target: wild-type human cardiac sodium channel, hNav1.5 (late sodium current) in HEK293 cells (Homo sapiens, UniProt Q14524)
Assay: Late INa screening assay (automated whole-cell patch clamp, PatchXpress)
Type: cell-based
Details: late INa generated with 10 μM Tefluthrin (or 50 nM ATX II), HEK293 hNav1.5; for inhibition at 1 µM: HEK293, compound at 1 μM, read-out: Late INa 1 μM (percent block of late INa)
Method in brief: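 Percent block was derived from mean current 225–250 ms into a 250 ms depolarisation to −20 mV (holding −120 mV, every 10 s), normalised to the current left in Na-free solution. Whole-cell recordings came from HEK293 cells stably expressing α-subunit-only hNav1.5, at 24–27 °C. Late current was enhanced with 10 μM tefluthrin or 50 nM ATX II, then compound (typically 10 μM) was added three times over 7–8 min.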

Sequence of wild-type human cardiac sodium channel, hNav1.5 (late sodium current) in HEK293 cells (Q14524 whole entry): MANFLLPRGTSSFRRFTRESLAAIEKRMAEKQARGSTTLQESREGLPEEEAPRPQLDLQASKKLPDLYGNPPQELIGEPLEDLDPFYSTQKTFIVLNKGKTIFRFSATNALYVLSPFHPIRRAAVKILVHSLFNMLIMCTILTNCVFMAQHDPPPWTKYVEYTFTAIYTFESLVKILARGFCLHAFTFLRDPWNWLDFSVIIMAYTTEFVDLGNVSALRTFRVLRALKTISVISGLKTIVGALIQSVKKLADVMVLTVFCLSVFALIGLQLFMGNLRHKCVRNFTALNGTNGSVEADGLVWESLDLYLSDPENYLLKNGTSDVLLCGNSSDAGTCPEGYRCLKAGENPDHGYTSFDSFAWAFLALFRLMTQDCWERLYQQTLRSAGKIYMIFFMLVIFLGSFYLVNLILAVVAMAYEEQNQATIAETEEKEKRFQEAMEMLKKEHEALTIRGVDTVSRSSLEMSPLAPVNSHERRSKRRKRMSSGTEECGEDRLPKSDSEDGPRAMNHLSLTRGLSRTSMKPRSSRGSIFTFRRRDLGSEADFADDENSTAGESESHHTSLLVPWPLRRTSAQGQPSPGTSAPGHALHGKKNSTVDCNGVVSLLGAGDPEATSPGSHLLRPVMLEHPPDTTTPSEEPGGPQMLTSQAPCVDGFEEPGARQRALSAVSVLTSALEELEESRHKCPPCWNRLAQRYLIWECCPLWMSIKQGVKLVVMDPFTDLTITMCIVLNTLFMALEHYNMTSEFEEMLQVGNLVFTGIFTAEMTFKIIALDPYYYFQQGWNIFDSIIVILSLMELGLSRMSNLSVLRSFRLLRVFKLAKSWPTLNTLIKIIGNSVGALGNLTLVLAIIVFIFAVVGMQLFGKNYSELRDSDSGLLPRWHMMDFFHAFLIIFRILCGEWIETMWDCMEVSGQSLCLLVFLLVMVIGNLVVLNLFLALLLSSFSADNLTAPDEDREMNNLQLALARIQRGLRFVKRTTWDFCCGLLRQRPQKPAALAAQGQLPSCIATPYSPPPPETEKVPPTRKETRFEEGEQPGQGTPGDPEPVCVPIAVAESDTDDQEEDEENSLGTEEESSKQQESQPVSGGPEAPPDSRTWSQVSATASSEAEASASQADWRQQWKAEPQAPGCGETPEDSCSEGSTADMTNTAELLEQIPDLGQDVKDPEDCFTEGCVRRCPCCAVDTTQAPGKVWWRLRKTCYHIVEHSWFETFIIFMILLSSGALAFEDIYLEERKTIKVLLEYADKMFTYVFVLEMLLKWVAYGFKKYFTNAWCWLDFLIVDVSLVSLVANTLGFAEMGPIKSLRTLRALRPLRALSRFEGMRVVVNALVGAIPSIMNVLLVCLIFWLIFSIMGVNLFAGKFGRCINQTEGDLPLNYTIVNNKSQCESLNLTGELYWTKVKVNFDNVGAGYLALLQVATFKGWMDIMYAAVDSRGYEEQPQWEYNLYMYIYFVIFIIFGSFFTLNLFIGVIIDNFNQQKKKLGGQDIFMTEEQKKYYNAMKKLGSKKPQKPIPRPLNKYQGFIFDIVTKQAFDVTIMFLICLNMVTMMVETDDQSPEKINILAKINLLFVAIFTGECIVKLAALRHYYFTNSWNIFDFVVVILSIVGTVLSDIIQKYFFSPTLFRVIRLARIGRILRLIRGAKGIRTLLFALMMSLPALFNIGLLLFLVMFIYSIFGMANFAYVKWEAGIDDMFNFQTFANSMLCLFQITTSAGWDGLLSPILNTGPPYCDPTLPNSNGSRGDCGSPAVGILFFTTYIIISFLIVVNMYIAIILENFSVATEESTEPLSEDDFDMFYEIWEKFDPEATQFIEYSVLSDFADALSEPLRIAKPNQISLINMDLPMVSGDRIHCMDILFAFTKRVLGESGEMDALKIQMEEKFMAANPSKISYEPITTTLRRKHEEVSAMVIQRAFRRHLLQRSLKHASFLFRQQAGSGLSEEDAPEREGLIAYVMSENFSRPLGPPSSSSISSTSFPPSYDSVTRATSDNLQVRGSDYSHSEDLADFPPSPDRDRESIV

Row | Structure (SMILES) | inhibition at 1 µM [%] | Late INa 1 μM (percent block of late INa) (compound at 1 μM) [%]
1 | CCOc1ccnc(OCCn2nc3ccc(-c4ccc(OC(F)(F)F)cc4)cn3c2=O)n1 [compound 106, 2-(2-(4-ethoxypyrimidin-2-yloxy)ethyl)-6-(4-(trifluoromethoxy)phenyl)-[1,2,4]triazolo[4,3-a]pyridin-3(2H)-one] | 47.2 | –
2 | Cc1nc2ccc(OCC(O)Cn3nc4ccc(-c5ccc(OC(F)(F)F)cc5)cn4c3=O)cc2s1 (stereo not shown) [compound 107, 2-(2-hydroxy-3-(2-methylbenzo[d]thiazol-6-yloxy)propyl)-6-(4-(trifluoromethoxy)phenyl)-[1,2,4]triazolo[4,3-a]pyridin-3(2H)-one] | 22.4 | –
3 | CC(C)Oc1ccccc1OCC(O)Cn1nc2ccc(-c3ccc(OC(F)(F)F)cc3)cn2c1=O (stereo not shown) [compound 108, 2-(2-hydroxy-3-(2-isopropoxyphenoxy)propyl)-6-(4-(trifluoromethoxy)phenyl)-[1,2,4]triazolo[4,3-a]pyridin-3(2H)-one] | 41.5 | –
4 | O=c1n(C2COCC2Oc2ncccn2)nc2ccc(-c3ccc(OC(F)(F)F)cc3)cn12 (stereo not shown) [compound 109, 2-(4-(pyrimidin-2-yloxy)tetrahydrofuran-3-yl)-6-(4-(trifluoromethoxy)phenyl)-[1,2,4]triazolo[4,3-a]pyridin-3(2H)-one] | 12.9 | –
5 | Cc1noc(Cn2nc3ccc(-c4ccc([Si](C)(C)C)cc4)cn3c2=O)n1 [compound 110, 2-((3-methyl-1,2,4-oxadiazol-5-yl)methyl)-6-(4-(trimethylsilyl)phenyl)-[1,2,4]triazolo[4,3-a]pyridin-3(2H)-one] | 44.3 | –
6 | O=c1n(CCc2ncccn2)nc2ccc(-c3ccc(OC(F)(F)F)cc3)cn12 [compound 111, 2-(2-(pyrimidin-2-yl)ethyl)-6-(4-(trifluoromethoxy)phenyl)-[1,2,4]triazolo[4,3-a]pyridin-3(2H)-one] | 18.6 | –
7 | O=C1C(Oc2ccccc2)CCN1CCn1nc2ccc(-c3ccc(OC(F)(F)F)cc3)cn2c1=O (stereo not shown) [compound 112, 2-(2-(2-oxo-3-phenoxypyrrolidin-1-yl)ethyl)-6-(4-(trifluoromethoxy)phenyl)-[1,2,4]triazolo[4,3-a]pyridin-3(2H)-one] | 11.1 | –
8 | O=c1n(CCc2ccncn2)nc2ccc(-c3ccc(OC(F)(F)F)cc3)cn12 [compound 113, 2-(2-(pyrimidin-4-yl)ethyl)-6-(4-(trifluoromethoxy)phenyl)-[1,2,4]triazolo[4,3-a]pyridin-3(2H)-one] | 17.8 | –
9 | O=c1n(CCc2cnccn2)nc2ccc(-c3ccc(OC(F)(F)F)cc3)cn12 [compound 114, 2-(2-(pyrazin-2-yl)ethyl)-6-(4-(trifluoromethoxy)phenyl)-[1,2,4]triazolo[4,3-a]pyridin-3(2H)-one] | 14.4 | –
10 | O=c1n(CCOc2nccc(-c3ccccc3)n2)nc2ccc(-c3ccc(OC(F)(F)F)cc3)cn12 [compound 115, 2-(2-(4-phenylpyrimidin-2-yloxy)ethyl)-6-(4-(trifluoromethoxy)phenyl)-[1,2,4]triazolo[4,3-a]pyridin-3(2H)-one] | 22.9 | –
11 | COc1cnc(OCCn2nc3ccc(-c4ccc(OC(F)(F)F)cc4)cn3c2=O)nc1 [compound 116, 2-(2-(5-methoxypyrimidin-2-yloxy)ethyl)-6-(4-(trifluoromethoxy)phenyl)-[1,2,4]triazolo[4,3-a]pyridin-3(2H)-one] | 31.3 | –
12 | Cc1nccnc1CCn1nc2ccc(-c3ccc(OC(F)(F)F)cc3)cn2c1=O [compound 117, 2-(2-(3-methylpyrazin-2-yl)ethyl)-6-(4-(trifluoromethoxy)phenyl)-[1,2,4]triazolo[4,3-a]pyridin-3(2H)-one] | 18.2 | –
13 | COc1ccc(Br)c(CCn2nc3ccc(-c4ccc(OC(F)(F)F)cc4)cn3c2=O)n1 [compound 118, 2-(2-(3-bromo-6-methoxypyridin-2-yl)ethyl)-6-(4-(trifluoromethoxy)phenyl)-[1,2,4]triazolo[4,3-a]pyridin-3(2H)-one] | 47.9 | –
14 | O=c1n(CCCc2ccc(F)c(-c3ncco3)c2)nc2ccc(-c3ccc(OC(F)(F)F)cc3)cn12 [compound 119, 2-(3-(4-fluoro-3-(oxazol-2-yl)phenyl)propyl)-6-(4-(trifluoromethoxy)phenyl)-[1,2,4]triazolo[4,3-a]pyridin-3(2H)-one] | 22 | –
15 | O=c1n(CCOc2ncccn2)nc2ccc(-c3ccc(Oc4ccc(Cl)cc4)cc3)cn12 [compound 120, 6-(4-(4-chlorophenoxy)phenyl)-2-(2-(pyrimidin-2-yloxy)ethyl)-[1,2,4]triazolo[4,3-a]pyridin-3(2H)-one] | 73.9 | –
16 | O=c1n(CCCc2ccc(F)c(-c3cccnc3)c2)nc2ccc(-c3ccc(OC(F)(F)F)cc3)cn12 [compound 121, 2-(3-(4-fluoro-3-(pyridin-3-yl)phenyl)propyl)-6-(4-(trifluoromethoxy)phenyl)-[1,2,4]triazolo[4,3-a]pyridin-3(2H)-one] | 13.1 | –

Row | Structure (SMILES) | inhibition at 1 µM [%] | Late INa 1 μM (percent block of late INa) (compound at 1 μM) [%]
17 | O=c1n(CCOc2ncccn2)nc2ccc(-c3ccc(Oc4ccc(F)cc4)cc3)cn12 [compound 122, 6-(4-(4-fluorophenoxy)phenyl)-2-(2-(pyrimidin-2-yloxy)ethyl)-[1,2,4]triazolo[4,3-a]pyridin-3(2H)-one] | 58.5 | –
18 | C[Si](C)(C)c1ccc(-c2ccc3nn(CCOc4ncccn4)c(=O)n3c2)cc1 [compound 123, 2-(2-(pyrimidin-2-yloxy)ethyl)-6-(4-(trimethylsilyl)phenyl)-[1,2,4]triazolo[4,3-a]pyridin-3(2H)-one] | 38 | –
19 | CCOC(COc1ccc2nc(C)sc2c1)Cn1nc2ccc(-c3ccc(OC(F)(F)F)cc3)cn2c1=O (stereo not shown) [compound 124, 2-(2-ethoxy-3-(2-methylbenzo[d]thiazol-6-yloxy)propyl)-6-(4-(trifluoromethoxy)phenyl)-[1,2,4]triazolo[4,3-a]pyridin-3(2H)-one] | 31.2 | –
20 | CCOc1ccnc(OC2COCC2n2nc3ccc(-c4ccc(OC(F)(F)F)cc4)cn3c2=O)n1 (stereo not shown) [compound 125, 2-(4-(4-ethoxypyrimidin-2-yloxy)tetrahydrofuran-3-yl)-6-(4-(trifluoromethoxy)phenyl)-[1,2,4]triazolo[4,3-a]pyridin-3(2H)-one] | 14.1 | –
21 | CN(C)c1nc(OCCn2nc3ccc(-c4ccc(OC(F)(F)F)cc4)cn3c2=O)ncc1F [compound 126, 2-(2-(4-(dimethylamino)-5-fluoropyrimidin-2-yloxy)ethyl)-6-(4-(trifluoromethoxy)phenyl)-[1,2,4]triazolo[4,3-a]pyridin-3(2H)-one] | 32.6 | –
22 | Cc1noc(Cn2nc3ccc(-c4cc(F)c(Oc5ccccc5)c(F)c4)cn3c2=O)n1 [compound 127, 6-(3,5-difluoro-4-phenoxyphenyl)-2-((3-methyl-1,2,4-oxadiazol-5-yl)methyl)-[1,2,4]triazolo[4,3-a]pyridin-3(2H)-one] | 21.5 | –
23 | COCc1nc(Cn2nc3ccc(-c4ccc(OC(F)(F)F)cc4)cn3c2=O)no1 [compound 128, 2-((5-(methoxymethyl)-1,2,4-oxadiazol-3-yl)methyl)-6-(4-(trifluoromethoxy)phenyl)-[1,2,4]triazolo[4,3-a]pyridin-3(2H)-one] | 22 | –
24 | N#Cc1ccnc(OCCn2nc3ccc(-c4ccc(OC(F)(F)F)cc4)cn3c2=O)n1 [compound 129] | – | 16.1133
25 | COc1nc(OCCn2nc3ccc(-c4ccc(OC(F)(F)F)cc4)cn3c2=O)ncc1Cl [compound 130, 2-(2-(5-chloro-4-methoxypyrimidin-2-yloxy)ethyl)-6-(4-(trifluoromethoxy)phenyl)-[1,2,4]triazolo[4,3-a]pyridin-3(2H)-one] | 32.4 | –
26 | Cc1noc(Cn2nc3ccc(-c4ccc(C(=O)c5ccccc5)cc4)cn3c2=O)n1 [compound 131, 6-(4-benzoylphenyl)-2-((3-methyl-1,2,4-oxadiazol-5-yl)methyl)-[1,2,4]triazolo[4,3-a]pyridin-3(2H)-one] | 34.7 | –
27 | O=c1n(CCOc2nccc(Oc3ccc(Cl)cc3)n2)nc2ccc(-c3ccc(OC(F)(F)F)cc3)cn12 [compound 132, 2-(2-(4-(4-chlorophenoxy)pyrimidin-2-yloxy)ethyl)-6-(4-(trifluoromethoxy)phenyl)-[1,2,4]triazolo[4,3-a]pyridin-3(2H)-one] | 11 | –
28 | O=c1n(CCOc2ncc(F)c(N3CC(F)(F)C3)n2)nc2ccc(-c3ccc(OC(F)(F)F)cc3)cn12 [compound 133, 2-(2-(4-(3,3-difluoroazetidin-1-yl)-5-fluoropyrimidin-2-yloxy)ethyl)-6-(4-(trifluoromethoxy)phenyl)-[1,2,4]triazolo[4,3-a]pyridin-3(2H)-one] | 20.5 | –
29 | Cc1noc(Cn2nc3ccc(-c4ccc(Cl)c(Cl)c4)cn3c2=O)n1 [compound 134, 6-(3,4-dichlorophenyl)-2-((3-methyl-1,2,4-oxadiazol-5-yl)methyl)-[1,2,4]triazolo[4,3-a]pyridin-3(2H)-one] | 15.5 | –
30 | O=c1n(CCOc2nccn3cccc23)nc2ccc(-c3ccc(OC(F)(F)F)cc3)cn12 [compound 135, 2-(2-(pyrrolo[1,2-a]pyrazin-1-yloxy)ethyl)-6-(4-(trifluoromethoxy)phenyl)-[1,2,4]triazolo[4,3-a]pyridin-3(2H)-one] | 41.5 | –
31 | O=C1c2ccccc2C(=O)N1Cc1nc(Cn2nc3ccc(-c4ccc(OC(F)(F)F)cc4)cn3c2=O)no1 [compound 136, 2-((3-((3-oxo-6-(4-(trifluoromethoxy)phenyl)-[1,2,4]triazolo[4,3-a]pyridin-2(3H)-yl)methyl)-1,2,4-oxadiazol-5-yl)methyl)isoindoline-1,3-dione] | 25.2 | –
